Paper PMC10937419, “Exploring pyrrolidinyl-spirooxindole natural products as promising platforms for the synthesis of novel spirooxindoles as EGFR/CDK2 inhibitors for halting breast cancer cells” (Frontiers in Chemistry, 2024)
Like-named read-outs stand apart in the source and are kept apart here.

Columns and labels:
MDA-MB-231 cells = test: MTT cytotoxicity assay, MDA-MB-231 breast cancer cells; assay type: cell-based; conditions: Homo sapiens
Description: (§1) All cells were incubated at 37 °C in 5% carbon dioxide atmosphere (NuAire). Cells were plated at a density of 5x10^4 cells in triplicates in a plate of 96 wells. On the second day, cells were treated with the compounds with concentrations of (0.01, 0.1, 1, 10, and 100 µM). Cell viability was assessed using the MTT assay [6].

MCF-7 cells = test: MTT cytotoxicity assay, MCF-7 breast cancer cells; assay type: cell-based; conditions: Homo sapiens
Description: as §1

WISH cells = test: MTT cytotoxicity (safety) assay, normal WISH cells; assay type: cell-based; conditions: mean ± SD of three independent trials
Description: The cytotoxicity of the synthesized compounds was tested using the MTT assay on breast cancer cells (MCF-7 and MDA-MB-231).
The methods for the Cytotoxic activity ([Mosmann, 1983]; [Nafie et al., 2020a]); EGFR/CDK-2 enzyme inhibition ([Nafie et al., 2022a]); Flow cytometry using Annexin V/PI staining; Gene expression analysis using RT-PCR ([Nafie et al., 2022b]); are amended in the Supplementary Material S1.
as §1, with “Both breast cancer; MCF-7 and MDA-MB-231 and normal (WISH) cells were purchased from the National Research Institute, Egypt, and maintained in RPMI-1640 medium L-Glutamine (Lonza Verviers SPRL, Belgium, cat#12-604F). All” for “All”

EGFR kinase = target: T1, EGFR kinase (Homo sapiens, UniProt P00533); test: EGFR kinase inhibition assay; assay type: biochemical; conditions: for % remaining EGFR kinase activity (relative to control): signal relative to control
T1 construct: purchased BPS Bioscience Corporation 40321
Description: (§2) Inhibitory activities of 5g, 5l, and 5n were tested against EGFR and CDK-2.
(§3) Plus, Promega, USA) inhibition assay.

CDK-2 kinase = target: T2, CDK-2 kinase (Homo sapiens, UniProt P24941); test: CDK-2 kinase inhibition assay (Kinase-Glo Plus); assay type: biochemical; conditions: for CDK-2 kinase activity remaining (% of control): signal relative to control
T2 construct: purchased not clearly printed (Promega, USA is printed after 'Kinase-Glo Plus'; #79599 is a BPS Bioscience number to my knowledge) 79599
Description: as §2, §3

[1] = MDA-MB-231, MTT assay, mean ± SD of three independent trials, read-out: IC50 ± SD, MDA-MB-231
[2] = MCF7, MTT assay, mean ± SD of three independent trials, read-out: IC50 ± SD, MCF-7
[3] = average of three independent replicates

T1 sequence (P00533 25-1210): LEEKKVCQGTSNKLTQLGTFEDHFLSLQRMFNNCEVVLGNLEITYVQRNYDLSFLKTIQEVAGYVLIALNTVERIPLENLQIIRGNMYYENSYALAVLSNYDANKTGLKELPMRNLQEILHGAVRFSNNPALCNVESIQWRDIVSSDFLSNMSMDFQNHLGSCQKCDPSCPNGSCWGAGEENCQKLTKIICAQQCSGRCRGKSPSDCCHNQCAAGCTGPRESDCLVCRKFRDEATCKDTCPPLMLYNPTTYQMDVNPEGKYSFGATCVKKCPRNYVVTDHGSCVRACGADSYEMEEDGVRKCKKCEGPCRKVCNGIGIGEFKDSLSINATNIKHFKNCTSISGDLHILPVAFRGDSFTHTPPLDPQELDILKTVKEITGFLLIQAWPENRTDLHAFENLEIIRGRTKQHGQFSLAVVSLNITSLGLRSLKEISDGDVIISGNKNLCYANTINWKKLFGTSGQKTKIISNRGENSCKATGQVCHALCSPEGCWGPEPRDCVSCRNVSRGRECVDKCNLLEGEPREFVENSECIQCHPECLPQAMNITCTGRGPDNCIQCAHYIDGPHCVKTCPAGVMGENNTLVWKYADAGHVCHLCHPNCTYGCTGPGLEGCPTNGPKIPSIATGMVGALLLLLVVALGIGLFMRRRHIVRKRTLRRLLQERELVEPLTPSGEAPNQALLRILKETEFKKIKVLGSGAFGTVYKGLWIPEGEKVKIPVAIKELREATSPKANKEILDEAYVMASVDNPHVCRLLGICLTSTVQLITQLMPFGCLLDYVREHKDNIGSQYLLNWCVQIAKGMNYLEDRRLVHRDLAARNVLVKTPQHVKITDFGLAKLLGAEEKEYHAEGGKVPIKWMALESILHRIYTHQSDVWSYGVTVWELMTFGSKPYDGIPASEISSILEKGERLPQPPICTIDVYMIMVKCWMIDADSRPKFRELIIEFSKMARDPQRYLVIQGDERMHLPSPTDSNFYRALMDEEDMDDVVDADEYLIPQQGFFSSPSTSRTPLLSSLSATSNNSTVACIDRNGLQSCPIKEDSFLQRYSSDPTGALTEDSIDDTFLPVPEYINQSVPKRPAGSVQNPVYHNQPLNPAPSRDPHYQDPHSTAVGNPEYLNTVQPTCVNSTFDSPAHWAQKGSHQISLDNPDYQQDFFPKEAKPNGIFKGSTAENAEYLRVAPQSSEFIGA

`O=C(O)CN1C(=O)S[C@@]2(C1=O)[C@@H](c1ccc(Cl)cc1)[C@H]1CSCN1[C@@]21C(=O)Nc2ccc(F)cc21` [Compound 5d, 2-((3S,6′S,7′S,7a′S)-7'-(4-Chlorophenyl)-5-fluoro-2,2″,4″-trioxo-7′,7a′-dihydro-1′H,3′H-dispiro [indoline-3,5′-pyrrolo [1,2-c]thiazole-6′,5″-thiazolidin]-3″-yl)acetic acid] was tested, and the IC50 (MDA-MB-231 cells; [1]) was 9.8 ± 0.35 µM and the IC50 (MCF-7 cells; [2]) was 19.4 ± 0.4 µM.
With `O=C(O)CN1C(=O)S[C@@]2(C1=O)[C@@H](c1ccc(Cl)cc1)[C@H]1CSCN1[C@@]21C(=O)Nc2cc(Cl)ccc21` [Compound 5c, 2-((3S,6′S,7′S,7a′S)-6-chloro-7'-(4-chlorophenyl)-2,2″,4″-trioxo-7′,7a′-dihydro-1′H,3′H-dispiro [indoline-3,5′-pyrrolo [1,2-c]thiazole-6′,5″-thiazolidin]-3″-yl)acetic acid] the IC50 (MDA-MB-231 cells; [1]) was 24.2 ± 1.1 µM and the IC50 (MCF-7 cells; [2]) was 15.8 ± 0.4 µM.
For `COC(=O)CNC(=O)CN1C(=O)S[C@@]2(C1=O)[C@@H](c1ccc(Cl)cc1)[C@H]1CSCN1[C@@]21C(=O)Nc2cc(Cl)ccc21` [Compound 5b, Methyl (2-((3S,6′S,7′S,7a′S)-6-chloro-7'-(4-chlorophenyl)-2,2″,4″-trioxo-7′,7a′-dihydro-1′H,3′H-dispiro [indoline-3,5′-pyrrolo [1,2-c]thiazole-6′,5″-thiazolidin]-3″-yl)acetyl)glycinate], the IC50 (MDA-MB-231 cells; [1]) was 32.5 ± 0.42 µM and the IC50 (MCF-7 cells; [2]) was 7.8 ± 0.32 µM.
For `COC(=O)CCCNC(=O)CN1C(=O)S[C@@]2(C1=O)[C@@H](c1ccc(Br)cc1)[C@H]1CSCN1[C@@]21C(=O)Nc2cc(Cl)ccc21` [Compound 5o, Methyl 4-(2-((3S,6′S,7′S,7a′S)-7'-(4-bromophenyl)-6-chloro-2,2″,4″-trioxo-7′,7a′-dihydro-1′H,3′H-dispiro [indoline-3,5′-pyrrolo [1,2-c]thiazole-6′,5″-thiazolidin]-3″-yl)acetamido)butanoate], the IC50 (MDA-MB-231 cells; [1]) was 4.32 ± 0.5 µM and the IC50 (MCF-7 cells; [2]) was 4.12 ± 0.4 µM.
`O=C(CN1C(=O)S[C@@]2(C1=O)[C@@H](c1ccc(Cl)cc1)[C@H]1CSCN1[C@@]21C(=O)Nc2ccc(Cl)cc21)NCCN1CCOCC1` [Compound 5k] showed an IC50 (MDA-MB-231 cells; [1]) of 19.5 ± 0.7 µM and an IC50 (MCF-7 cells; [2]) of 21.4 ± 0.9 µM.
With `COC(=O)CNC(=O)CN1C(=O)S[C@@]2(C1=O)[C@@H](c1ccc(Cl)cc1)[C@H]1CSCN1[C@@]21C(=O)Nc2ccc(Cl)cc21` [Compound 5a, Methyl (2-((3S,6′S,7′S,7a′S)-5-chloro-7'-(4-chlorophenyl)-2,2″,4″-trioxo-7′,7a′-dihydro-1′H,3′H-dispiro [indoline-3,5′-pyrrolo [1,2-c]thiazole-6′,5″-thiazolidin]-3″-yl)acetyl)glycinate] the IC50 (MDA-MB-231 cells; [1]) was 29.5 ± 1.3 µM and the IC50 (MCF-7 cells; [2]) was 5.87 ± 0.5 µM.
In the case of `COC(=O)[C@H](C)NC(=O)CN1C(=O)S[C@@]2(C1=O)[C@@H](c1ccc(Cl)cc1)[C@H]1CSCN1[C@@]21C(=O)Nc2cc(Cl)ccc21` [Compound 5n, Methyl (2-((3S,6′S,7′S,7a′S)-6-chloro-7'-(4-chlorophenyl)-2,2″,4″-trioxo-7′,7a′-dihydro-1′H,3′H-dispiro [indoline-3,5′-pyrrolo [1,2-c]thiazole-6′,5″-thiazolidin]-3″-yl)acetyl)alaninate], the IC50 (WISH cells) is reported as 47.2 ± 2.1 µM, the “% remaining EGFR kinase activity (relative to control)” value (EGFR kinase; 0.01 µM, ΔT=30 min) is reported as 71.48% and the inhibition at 0.01 µM (EGFR kinase; 0.01 µM, ΔT=30 min) is reported as 28.5%. For the same molecule, the “% remaining EGFR kinase activity (relative to control)” value (EGFR kinase; 0.1 µM, ΔT=30 min) was 59.63%, the inhibition at 0.1 µM (EGFR kinase; 0.1 µM, ΔT=30 min) was 40.4% and the “% remaining EGFR kinase activity (relative to control)” value (EGFR kinase; 1 µM, ΔT=30 min) was 36.13%. For the same molecule, the inhibition at 1 µM (EGFR kinase; 1 µM, ΔT=30 min) was 63.9%, the “% remaining EGFR kinase activity (relative to control)” value (EGFR kinase; 2.5 µM, ΔT=30 min) was 37.42% and the inhibition at 2.5 µM (EGFR kinase; 2.5 µM, ΔT=30 min) was 62.6%. The “% remaining EGFR kinase activity (relative to control)” value (EGFR kinase; 5 µM, ΔT=30 min) was 30.59%, the inhibition at 5 µM (EGFR kinase; 5 µM, ΔT=30 min) was 69.4% and the “% remaining EGFR kinase activity (relative to control)” value (EGFR kinase; 10 µM, ΔT=30 min) was 8.54%. For the same molecule, the inhibition at 10 µM (EGFR kinase; 10 µM, ΔT=30 min) was 91.2%, the IC50 (EGFR kinase; [3]) was 0.04 ± 0.001 µM and the “% Of EGFR inhibition” value (EGFR kinase; concentration not given in Table 2, matches 10 µM in the 4th table) was 91.2 ± 2.1%. For the same molecule, the IC50 (MDA-MB-231 cells; [1]) was 5.3 ± 0.4 µM, the IC50 (MCF-7 cells; [2]) was 3.9 ± 0.3 µM and the “CDK-2 kinase activity remaining (% of control)” value (CDK-2 kinase; 0.01 µM, ΔT=30 min) was 91.05%. For the same molecule, the inhibition at 0.01 µM (CDK-2 kinase; 0.01 µM, ΔT=30 min, read-out: % of inhibition, CDK2) was 8.95%, the “CDK-2 kinase activity remaining (% of control)” value (CDK-2 kinase; 0.1 µM, ΔT=30 min) was 74.4404% and the inhibition at 0.1 µM (CDK-2 kinase; 0.1 µM, ΔT=30 min, read-out: % of inhibition, CDK2) was 25.6%. For the same molecule, the “CDK-2 kinase activity remaining (% of control)” value (CDK-2 kinase; 1 µM, ΔT=30 min) was 63.25%, the inhibition at 1 µM (CDK-2 kinase; 1 µM, ΔT=30 min, read-out: % of inhibition, CDK2) was 36.8% and the “CDK-2 kinase activity remaining (% of control)” value (CDK-2 kinase; 2.5 µM, ΔT=30 min) was 61.79%. For the same molecule, the inhibition at 2.5 µM (CDK-2 kinase; 2.5 µM, ΔT=30 min, read-out: % of inhibition, CDK2) was 38.2%, the “CDK-2 kinase activity remaining (% of control)” value (CDK-2 kinase; 5 µM, ΔT=30 min) was 47.27% and the inhibition at 5 µM (CDK-2 kinase; 5 µM, ΔT=30 min, read-out: % of inhibition, CDK2) was 52.7%. The “CDK-2 kinase activity remaining (% of control)” value (CDK-2 kinase; 10 µM, ΔT=30 min) was 42.84%, the inhibition at 10 µM (CDK-2 kinase; 10 µM, ΔT=30 min, read-out: % of inhibition, CDK2) was 88.7% and the IC50 (CDK-2 kinase; [3]) was 0.557 µM. For the same molecule, the “% Of CDK-2 inhibition” value (CDK-2 kinase; concentration not given in Table 2, matches 10 µM in the 5th table) was 88.7%.
Work on `O=C(CN1C(=O)S[C@@]2(C1=O)[C@@H](c1ccc(Cl)cc1)[C@H]1CSCN1[C@@]21C(=O)Nc2ccc(F)cc21)NCCN1CCOCC1` [Compound 5j] yielded an IC50 (MDA-MB-231 cells; [1]) of 21.4 ± 0.8 µM and an IC50 (MCF-7 cells; [2]) of 23.4 ± 1.2 µM.
For `O=C(O)CN1C(=O)S[C@@]2(C1=O)[C@@H](c1ccc(Cl)cc1)[C@H]1CSCN1[C@@]21C(=O)Nc2ccc([N+](=O)[O-])cc21` [Compound 5f, 2-((3S,6′S,7′S,7a′S)-7'-(4-Chlorophenyl)-5-nitro-2,2″,4″-trioxo-7′,7a′-dihydro-1′H,3′H-dispiro [indoline-3,5′-pyrrolo [1,2-c]thiazole-6′,5″-thiazolidin]-3″-yl)acetic acid], the IC50 (MDA-MB-231 cells; [1]) was 35.5 ± 1.1 µM and the IC50 (MCF-7 cells; [2]) was 18.5 ± 0.6 µM.
`C#Cc1cccc(Nc2ncnc3cc(OCCOC)c(OCCOC)cc23)c1` [Erlotinib, reference compound] was tested, and the IC50 (MDA-MB-231 cells; MDA-MB-231, read-out: IC50 ± SD, MDA-MB-231) was 3.25 ± 0.5 µM and the IC50 (MCF-7 cells; MCF7, read-out: IC50 ± SD, MCF-7) was 2.14 ± 0.3 µM.
Molecule `O=C(CN1C(=O)S[C@@]2(C1=O)[C@@H](c1ccc(Cl)cc1)[C@H]1CSCN1[C@@]21C(=O)Nc2ccc([N+](=O)[O-])cc21)NCCN1CCOCC1` [Compound 5i] has an IC50 (MDA-MB-231 cells; [1]) of 35.3 ± 1.2 µM and an IC50 (MCF-7 cells; [2]) of 28.7 ± 0.8 µM.
`Cc1ccc2c(c1)[C@@]1(C(=O)N2)N2CSC[C@@H]2[C@H](c2ccc(Cl)cc2)[C@]12SC(=O)N(CC(=O)O)C2=O` [Compound 5e, 2-((3S,6′S,7′S,7a′S)-7'-(4-Chlorophenyl)-5-methyl-2,2″,4″-trioxo-7′,7a′-dihydro-1′H,3′H-dispiro [indoline-3,5′-pyrrolo [1,2-c]thiazole-6′,5″-thiazolidin]-3″-yl)acetic acid] showed an IC50 (MDA-MB-231 cells; [1]) of 5.4 ± 0.6 µM and an IC50 (MCF-7 cells; [2]) of 9.8 ± 0.7 µM.
For `COC(=O)[C@@H](NC(=O)CN1C(=O)S[C@@]2(C1=O)[C@@H](c1ccc(Br)cc1)[C@H]1CSCN1[C@@]21C(=O)Nc2ccc(F)cc21)C(C)C` [Compound 5m, Methyl (2-((3S,6′S,7′S,7a′S)-7'-(4-bromophenyl)-5-fluoro-2,2″,4″-trioxo-7′,7a′-dihydro-1′H,3′H-dispiro [indoline-3,5′-pyrrolo [1,2-c]thiazole-6′,5″-thiazolidin]-3″-yl)acetyl)valinate], the IC50 (MDA-MB-231 cells; [1]) was 6.3 ± 0.3 µM and the IC50 (MCF-7 cells; [2]) was 4.5 ± 0.4 µM.
